Converted amounts (≈) assume the structure as drawn.
Tests used:
[1] = test system: Enterococcus faecalis (GC 6189); experiment: acute lethal infection in mice; assay type: in vivo; details: female CD-1 mice, intraperitoneal challenge, intravenous 30 min. after infection, 7 day survival
Method in brief: (§1)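 ED50 from 7 day survival ratios pooled over 3 separate tests. Female CD-1 mice, 20+/−2 gm, ip bacterial challenge (trypticase soy broth or hog gastric mucin) lethal to untreated controls in 24-48 hr; iv dosing 30 min after infection in saline or 5% dextrose, n=5/dose.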

[2] = test system: Staphylococcus aureus-SMITH (GC 4543); experiment: acute lethal infection in mice; assay type: in vivo; details: acute lethal infection, female CD-1 mice, intraperitoneal challenge, intravenous 30 min. after infection, 7 day survival
Method in brief: as §1

[3] = test system: Streptococcus sp.; experiment: in vitro antibacterial evaluation, MIC by broth dilution; assay type: cell-based; details: broth dilution, 18 hours at 35° C.
Method in brief: (§2)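 MIC = lowest antibiotic concentration preventing visible growth; inoculum 5×10^5 CFU/mL; drug range 64-0.06 μg/mL; Muller-Hinton II […]; NCCLS M7-A2 guidance.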

[4] = test system: Staphylococcus sp.; experiment: as above; assay type: cell-based; details: broth dilution, 18 hours at 35° C.
Method in brief: as §2

[5] = test system: Escherichia coli; experiment: as above; assay type: cell-based; details: 18 hours at 35° C.
Method in brief: as §2

[6] = test system: Enterococcus sp.; experiment: as above; assay type: cell-based; details: broth dilution, 18 hours at 35° C.
Method in brief: as §2

For CC(c1ccccc1)C1NC(=O)CNC(=O)C(CO)NC(=O)C(C(O)C2CNC(=N)N2C2OC(CO)C(O)C(O)C2O)NC(=O)C(C(O)C2CNC(=N)N2)NC(=O)C(Cc2ccc(OC3OC(CO)C(OC4OC5COC(Cc6ccc(F)cc6)OC5C(O)C4O)C(O)C3O)cc2)NC1=O (stereo not drawn) [Example 121, Cyclo[glycyl-β-methylphenylalanyl-O-[4-O-[4,6-O-(4-fluorophenethylidene)hexopyranosyl]-hexopyranosyl]tyrosyl-3-(2-iminoimidazolidin-4-yl)seryl-3-(3-hexopyranosyl-2-iminoimidazolidin-4-yl)serylseryl]], the median effective dose (ED50), Enterococcus faecalis (GC 6189) [1] was 0.5 mg/kg, the median effective dose (ED50), Staphylococcus aureus-SMITH (GC 4543) [2] was 0.32 mg/kg and the “MIC Streptococcus agalactiae (GC 4564)” value ([3]; Streptococcus agalactiae (GC 4564)) was 0.25 µg/mL (≈ 0.177 µM). For the same compound, the “MIC Streptococcus pneumoniae (ATCC 6301)” value ([3]; Streptococcus pneumoniae (ATCC 6301)) was <0.06 µg/mL, the “MIC Streptococcus pneumoniae (GC 1894)” value ([3]; Streptococcus pneumoniae (GC 1894)) was <0.06 µg/mL and the “MIC Streptococcus pneumoniae (GC 4565)” value ([3]; Streptococcus pneumoniae (GC 4565)) was <0.06 µg/mL. The “MIC Streptococcus pyogenes (GC 4563)” value ([3]; Streptococcus pyogenes (GC 4563)) was 0.25 µg/mL (≈ 0.177 µM), the “MIC Streptococcus pneumoniae (ATCC 6301)” value ([3]; strain ATCC 6301) was <0.06 µg/mL and the “MIC Streptococcus pneumoniae (GC 1894)” value ([3]; strain GC 1894) was <0.06 µg/mL. The “MIC Streptococcus pyogenes (GC 4563)” value ([3]; strain GC 4563) was 0.25 µg/mL (≈ 0.177 µM), the “MIC Streptococcus agalactiae (GC 4564)” value ([3]; strain GC 4564) was 0.25 µg/mL (≈ 0.177 µM) and the “MIC Streptococcus pneumoniae (GC 4565)” value ([3]; strain GC 4565) was <0.06 µg/mL. The “MIC Coagulase Negative Staphylococcus (GC 4547)” value [4] was 1 µg/mL (≈ 0.707 µM), the “MIC Coagulase Negative Staphylococcus (GC 4548)” value [4] was 0.5 µg/mL (≈ 0.353 µM) and the “MIC Coagulase Negative Staphylococcus (GC 4549)” value [4] was 0.5 µg/mL (≈ 0.353 µM). The “MIC Coagulase Negative Staphylococcus (GC 4551)” value [4] was 2 µg/mL (≈ 1.41 µM), the “MIC Coagulase Negative Staphylococcus (GC 6257)” value [4] was 1 µg/mL (≈ 0.707 µM) and the “MIC Staphylococcus aureus (ATCC 29213)” value [4] was 1 µg/mL (≈ 0.707 µM). The “MIC Staphylococcus aureus (GC 1131)” value [4] was 2 µg/mL (≈ 1.41 µM), the “MIC Staphylococcus aureus (GC 3051)” value [4] was 1 µg/mL (≈ 0.707 µM) and the “MIC Staphylococcus aureus (GC 3053)” value [4] was 1 µg/mL (≈ 0.707 µM). The “MIC Staphylococcus aureus (GC 4541)” value [4] was 1 µg/mL (≈ 0.707 µM), the “MIC Staphylococcus aureus (GC 4542)” value [4] was 1 µg/mL (≈ 0.707 µM) and the “MIC Staphylococcus aureus (GC 4544)” value [4] was 2 µg/mL (≈ 1.41 µM). For the same compound, the “MIC Staphylococcus aureus (GC 4545)” value [4] was 2 µg/mL (≈ 1.41 µM), the “MIC Staphylococcus aureus-SMITH (GC 4543)” value [4] was 1 µg/mL (≈ 0.707 µM) and the “MIC Staphylococcus haemolyticus (GC 4546)” value [4] was 1 µg/mL (≈ 0.707 µM). The “MIC Staphylococcus aureus (GC 1131)” value ([4]; inoculum 5×10^5 CFU/mL, strain GC 1131) was 2 µg/mL (≈ 1.41 µM), the “MIC Staphylococcus aureus (ATCC 29213)” value ([4]; strain ATCC 29213) was 1 µg/mL (≈ 0.707 µM) and the “MIC Staphylococcus aureus (GC 3051)” value ([4]; strain GC 3051) was 1 µg/mL (≈ 0.707 µM). For the same compound, the “MIC Staphylococcus aureus (GC 3053)” value ([4]; strain GC 3053) was 1 µg/mL (≈ 0.707 µM), the “MIC Staphylococcus aureus (GC 4541)” value ([4]; strain GC 4541) was 1 µg/mL (≈ 0.707 µM) and the “MIC Staphylococcus aureus (GC 4542)” value ([4]; strain GC 4542) was 1 µg/mL (≈ 0.707 µM). For the same compound, the “MIC Staphylococcus aureus (GC 4544)” value ([4]; strain GC 4544) was 2 µg/mL (≈ 1.41 µM), the “MIC Staphylococcus aureus (GC 4545)” value ([4]; strain GC 4545) was 2 µg/mL (≈ 1.41 µM) and the “MIC Staphylococcus haemolyticus (GC 4546)” value ([4]; strain GC 4546) was 1 µg/mL (≈ 0.707 µM). The “MIC Coagulase Negative Staphylococcus (GC 4547)” value ([4]; strain GC 4547) was 1 µg/mL (≈ 0.707 µM), the “MIC Coagulase Negative Staphylococcus (GC 4548)” value ([4]; strain GC 4548) was 0.5 µg/mL (≈ 0.353 µM) and the “MIC Coagulase Negative Staphylococcus (GC 4549)” value ([4]; strain GC 4549) was 0.5 µg/mL (≈ 0.353 µM). For the same compound, the “MIC Coagulase Negative Staphylococcus (GC 4551)” value ([4]; strain GC 4551) was 2 µg/mL (≈ 1.41 µM), the “MIC Coagulase Negative Staphylococcus (GC 6257)” value ([4]; strain GC 6257) was 1 µg/mL (≈ 0.707 µM) and the “MIC Staphylococcus aureus-SMITH (GC 4543)” value ([4]; strain SMITH GC 4543) was 1 µg/mL (≈ 0.707 µM). The “MIC Escherichia coli (ATCC 25922)” value ([5]; strain ATCC 25922) was 32 µg/mL (≈ 22.6 µM), the “MIC Escherichia coli (GC 4559)” value ([5]; strain GC 4559) was 32 µg/mL (≈ 22.6 µM) and the “MIC Escherichia coli (GC 4560)” value ([5]; strain GC 4560) was 1 µg/mL (≈ 0.707 µM). For the same compound, the “MIC Enterococcus avium (GC 4558)” value ([6]; Enterococcus avium (GC 4558)) was 4 µg/mL (≈ 2.83 µM), the “MIC Enterococcus faecalis (ATCC 29212)” value ([6]; Enterococcus faecalis (ATCC 29212)) was 2 µg/mL (≈ 1.41 µM) and the “MIC Enterococcus faecalis (GC 2242)” value ([6]; Enterococcus faecalis (GC 2242)) was 2 µg/mL (≈ 1.41 µM). The “MIC Enterococcus faecalis (GC 2691)” value ([6]; Enterococcus faecalis (GC 2691)) was 4 µg/mL (≈ 2.83 µM), the “MIC Enterococcus faecalis (GC 3059)” value ([6]; Enterococcus faecalis (GC 3059)) was 2 µg/mL (≈ 1.41 µM) and the “MIC Enterococcus faecalis (GC 4552)” value ([6]; Enterococcus faecalis (GC 4552)) was 2 µg/mL (≈ 1.41 µM). For the same compound, the “MIC Enterococcus faecalis (GC 4553)” value ([6]; Enterococcus faecalis (GC 4553)) was 4 µg/mL (≈ 2.83 µM), the “MIC Enterococcus faecalis (GC 4554)” value ([6]; Enterococcus faecalis (GC 4554)) was 2 µg/mL (≈ 1.41 µM) and the “MIC Enterococcus faecalis (GC 6189)” value ([6]; Enterococcus faecalis (GC 6189)) was 2 µg/mL (≈ 1.41 µM). For the same compound, the “MIC Enterococcus faecium (GC 2243)” value ([6]; Enterococcus faecium (GC 2243)) was 2 µg/mL (≈ 1.41 µM), the “MIC Enterococcus faecium (GC 4556)” value ([6]; Enterococcus faecium (GC 4556)) was 2 µg/mL (≈ 1.41 µM) and the “MIC Enterococcus faecium (GC 4557)” value ([6]; Enterococcus faecium (GC 4557)) was 2 µg/mL (≈ 1.41 µM). For the same compound, the “MIC Enterococcus faecalis (ATCC 29212)” value ([6]; strain ATCC 29212) was 2 µg/mL (≈ 1.41 µM), the “MIC Enterococcus faecalis (GC 2242)” value ([6]; strain GC 2242) was 2 µg/mL (≈ 1.41 µM) and the “MIC Enterococcus faecium (GC 2243)” value ([6]; strain GC 2243) was 2 µg/mL (≈ 1.41 µM). For the same compound, the “MIC Enterococcus faecalis (GC 2691)” value ([6]; strain GC 2691) was 4 µg/mL (≈ 2.83 µM), the “MIC Enterococcus faecalis (GC 3059)” value ([6]; strain GC 3059) was 2 µg/mL (≈ 1.41 µM) and the “MIC Enterococcus faecalis (GC 4552)” value ([6]; strain GC 4552) was 2 µg/mL (≈ 1.41 µM). The “MIC Enterococcus faecalis (GC 4553)” value ([6]; strain GC 4553) was 4 µg/mL (≈ 2.83 µM), the “MIC Enterococcus faecalis (GC 4554)” value ([6]; strain GC 4554) was 2 µg/mL (≈ 1.41 µM) and the “MIC Enterococcus faecium (GC 4556)” value ([6]; strain GC 4556) was 2 µg/mL (≈ 1.41 µM). The “MIC Enterococcus faecium (GC 4557)” value ([6]; strain GC 4557) was 2 µg/mL (≈ 1.41 µM), the “MIC Enterococcus avium (GC 4558)” value ([6]; strain GC 4558) was 4 µg/mL (≈ 2.83 µM) and the “MIC Enterococcus faecalis (GC 6189)” value ([6]; strain GC 6189) was 2 µg/mL (≈ 1.41 µM).

From patent US6914045B2, “Glycopeptide antibiotics” (Wyeth Holdings Corporation, priority 2001, dated 2005)
